# Source: US20230149374A1, “METHODS AND COMPOSITIONS FOR TREATING ATHEROSCLEROSIS” (Sanford Burnham Prebys Medical Discovery Institute, priority 2021, published 2023)
# Entries after “also recorded” stand apart in the source; their conditions may differ.
# Experiments:
# Format in all cases: in vivo, mouse
# ApoE-deficient mice [1] = experiment: Plaque histology: osteosense staining of calcifications, oil red O staining; conditions: ApoE-deficient mice on HFD, 30 mg/kg/day from 10 to 25 weeks
# Excerpt: (§1) Four cohorts of mice were used in these studies (FIGS. 8A and 9A). Cohorts 1 and 2 were devoted to the in vivo and ex vivo characterization of TNAP-associated plaque calcification. 6-week-old ApoE-deficient male mice were received at the animal facility and placed in conventional cages with 5 mice per cage. Mice were maintained on a 12-hrs light-dark cycle (7:00 am-7:00 pm) and were supplied with food and water ad libitum. From 10 weeks of age, they were fed ad libitum with a high fat diet (HFD, D12108C, Research Diets, New Brunswick, USA) containing 40% fat (kcal) and 1.25% cholesterol (weight). In cohort 1, 8 mice were sacrificed every 2 weeks between weeks 17 to 31, for histological and molecular analyses. Total body weight was measured weekly after starting the HFD. The sacrifice was done after anesthesia with isoflurane and intracardiac blood puncture by CO2 inhalation. Tissues were harvested as described below. The abdominal aorta was used for quantitative polymerase chain reaction (PCR) analyses. Mice from cohort 2 were used to analyze aorta calcification with ^18F—NaF μPET and μCT and to compare the in vivo data with the ex vivo results obtained in cohort 1. Animals were transferred from the animal facility to the Cermep imaging platform. Cohorts 3 and 4 were used to determine in vivo and ex vivo the impact of TNAP inhibition on the vasculature, liver, bones, and kidneys. According to the results obtained in cohorts 1 and 2, TNAP inhibitor SBI-425 (30 mg/kg/day, formulated as a food admixture in the HFD) was administered in a preventive manner from 10 weeks of age. Treatment was stopped at 25 weeks or 31 weeks of age. Plaque calcification was analyzed at 25 weeks, and possible side effects of TNAP inhibition were explored in mice aged 31 weeks. Mice in cohort 3 (2 groups of 13 mice) were used for ex vivo analysis, and mice in cohort 4 (2 groups of 12 mice) for in vivo imaging and ex vivo analyses.
# After euthanasia, the heart and vasculature were perfused with sterile NaCl 0.9%. The aortic root and the aortic arch, with the major arteries that stem from them (brachiocephalic, left common carotid and left subclavian), were dissected and frozen in optimal cutting temperature medium (OCT, Thermo Scientific) and stored at −80° C. before serial cryo-sectioning. The aortic root, aortic arch and carotid were dissected under a microscope, frozen in optimal cutting medium (OCT, Thermo Scientific) and stored at −80° C. before serial cryo-sectioning. […] Calcification was imaged by near infrared fluorescence (NIRF) with the calcium tracer osteosense (OS) (PerkinElmer, ex/em 650/680 nm). […] Quantification was performed by computer image analysis using Image J software (NIH, Bethesda, Md.) by averaging of measurements from 2 sections of 15 μm apart using ImageJ software. […]
# ApoE-deficient mice [2] = experiment: Bone architecture by micro-CT of the femur; conditions: 30 mg/kg/day, treatment up to 21 weeks (31 weeks of age)
# Excerpt: as §1, with “Cohorts 3 and 4 were used to determine in vivo and ex vivo the impact of TNAP inhibition on the vasculature, liver, bones, and kidneys. According to the results obtained in cohorts 1 and 2, TNAP inhibitor SBI-425 (30 mg/kg/day, formulated as a food admixture in the HFD) was administered in a preventive manner from 10 weeks of age. Treatment was stopped at 25 weeks or 31 weeks of age.” left out, “Mice in cohort 3 (2 groups of 13 mice) were used for ex vivo analysis, and mice in cohort 4 (2 groups of 12 mice) for in vivo imaging and ex vivo analyses.” left out
# ApoE-deficient mice [3] = experiment: Liver content of cholesterol, triglycerides, bile acids, hydroxyproline; conditions: 30 mg/kg/day, 25 weeks, vs control
# Excerpt: as §1
# For the determination of cholesterol, triglycerides, and total bile acids in liver, 40-mg pieces of liver were homogenized in 1 mL of 5% NP40 solution in a dounce homogenizer. The hydrophobic components were extracted twice at 80° C. for 5 minutes. The samples were centrifuged, and the supernatants were assayed for cholesterol, triglycerides and bile acids with the same kits used for blood. In order to quantify hydroxyproline, 100 mg pieces of liver were homogenized in 1 mL of pure water in a dounce homogenizer and a perchlorate-free kit from Sigma was used (MAK357).
structure (smiles),measurement,setting,value
COc1ccc(Cl)cc1S(=O)(=O)Nc1cncc(C(N)=O)c1 [SBI-425],"mice that formed calcifications, by histology","ApoE-deficient mice [1]; OS staining, control 13 out of 13",9 out of 13
same,number of calcifications per mice,"ApoE-deficient mice [1]; OS staining, vs control",lower
same,plaque lipids (lipid surface),"ApoE-deficient mice [1]; oil red O, vs control",less lipids
same,plaque size (plaque surface),"ApoE-deficient mice [1]; oil red O, vs control, 30 mg/kg/day",smaller; also recorded: reduced
same,bone architecture,ApoE-deficient mice [2],no effect; also recorded: did not significantly change
same,liver TG content,ApoE-deficient mice [3],not increased
same,liver bile acids levels,ApoE-deficient mice [3],did not change
same,liver cholesterol levels,ApoE-deficient mice [3],did not change
same,liver hydroxyproline levels (liver fibrosis),ApoE-deficient mice [3],unchanged
